From ChEMBL document CHEMBL1781929, “Novel benzo[b]thiophene derivatives as new potential antidepressants with rapid onset of action” (J Med Chem, 2011)
Calls of active or inactive are those of the source. The calls are words filed in the database; no cut-off is given here.

Tests used:
[1] = biological target: T1, 5-hydroxytryptamine receptor 7 (Homo sapiens, UniProt P34969); assay: Partial agonist activity at human 5HT7 receptor expressed in HEK293 cells assessed as effect on cAMP production after 20 mins; assay type: functional, cell-based
[2] = biological target: T1, 5-hydroxytryptamine receptor 7; assay: Displacement of [3H]5-CT from human 5HT7 receptor expressed in HEK293 cells after 1 hr by liquid scintillation counting; assay type: cell-based
[3] = biological target: Sodium-dependent serotonin transporter (Rattus norvegicus) (UniProt P31652); assay: Displacement of [3H]5-HT from of SERT in rat midbrain homogenates at 1 uM after 5 mins by scintillation counting; assay type: tissue-based
[4] = biological target: Sodium-dependent serotonin transporter (Rattus norvegicus) (UniProt P31652); assay: Displacement of [3H]5-HT from of SERT in rat midbrain homogenates at 10 uM after 5 mins by scintillation counting; assay type: tissue-based
[5] = biological target: Sodium-dependent serotonin transporter (Rattus norvegicus, UniProt P31652); assay: Displacement of [3H]5-HT from of SERT in rat midbrain homogenates after 5 mins by scintillation counting; assay type: tissue-based
[6] = tested on: Mus musculus; assay: Toxicity in albino mouse assessed as increase in locomotor activity at 10 mg/kg, ip; assay type: organism-based; set-up: dose 10 mg/kg, route intraperitoneal; conditions: in vivo
[7] = tested on: Mus musculus; assay: Antidepressant activity in albino mouse assessed as reduction of immobility time at 10 mg/kg, ip qd for 15 days by forced swimming test; assay type: functional, organism-based; set-up: dose 10 mg/kg
[8] = biological target: T2, 5-hydroxytryptamine receptor 1A (Homo sapiens, UniProt P08908); assay: Binding affinity to 5HT1A receptor
T2 sequence (P08908 whole entry): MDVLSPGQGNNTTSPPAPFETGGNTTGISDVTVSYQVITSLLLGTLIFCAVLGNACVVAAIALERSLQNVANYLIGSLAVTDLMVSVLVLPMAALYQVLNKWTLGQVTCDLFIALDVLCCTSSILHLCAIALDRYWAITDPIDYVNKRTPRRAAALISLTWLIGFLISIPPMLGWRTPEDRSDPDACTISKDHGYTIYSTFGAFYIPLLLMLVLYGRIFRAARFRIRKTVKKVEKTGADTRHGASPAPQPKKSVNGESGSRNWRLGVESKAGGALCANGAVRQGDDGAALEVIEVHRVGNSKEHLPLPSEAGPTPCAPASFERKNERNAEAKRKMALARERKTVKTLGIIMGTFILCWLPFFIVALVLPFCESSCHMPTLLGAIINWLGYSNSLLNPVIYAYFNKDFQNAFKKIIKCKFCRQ

[9] = biological target: T1, 5-hydroxytryptamine receptor 7; assay: Inverse agonist activity at human 5HT7 receptor expressed in HEK293 cells assessed as effect on cAMP production after 20 mins; assay type: functional, cell-based
[10] = tested on: Mus musculus; assay: Antidepressant activity in albino mouse assessed as reduction of immobility time at 10 mg/kg, ip measured for 4 mins by forced swimming test; assay type: functional, organism-based; set-up: dose 10 mg/kg
[11] = biological target: T1, 5-hydroxytryptamine receptor 7; assay: Antagonist activity at human 5HT7 receptor expressed in HEK293 cells assessed as inhibition of serotonin-induced cAMP production after 20 mins; assay type: functional, cell-based
[12] = tested on: Mus musculus; assay: Antidepressant activity in albino mouse assessed as reduction of immobility time at 20 mg/kg, ip qd for 15 days by forced swimming test; assay type: functional, organism-based; set-up: dose 20 mg/kg
[13] = tested on: Mus musculus; assay: Antidepressant activity in albino mouse assessed as reduction of immobility time at 10 to 20 mg/kg, ip measured up to 4 mins by forced swimming test; assay type: functional, organism-based
[14] = biological target: T1, 5-hydroxytryptamine receptor 7; assay: Partial antagonist activity at human 5HT7 receptor expressed in HEK293 cells assessed as inhibition of serotonin-induced cAMP production after 20 mins; assay type: functional, cell-based

T1 sequence (P34969 whole entry): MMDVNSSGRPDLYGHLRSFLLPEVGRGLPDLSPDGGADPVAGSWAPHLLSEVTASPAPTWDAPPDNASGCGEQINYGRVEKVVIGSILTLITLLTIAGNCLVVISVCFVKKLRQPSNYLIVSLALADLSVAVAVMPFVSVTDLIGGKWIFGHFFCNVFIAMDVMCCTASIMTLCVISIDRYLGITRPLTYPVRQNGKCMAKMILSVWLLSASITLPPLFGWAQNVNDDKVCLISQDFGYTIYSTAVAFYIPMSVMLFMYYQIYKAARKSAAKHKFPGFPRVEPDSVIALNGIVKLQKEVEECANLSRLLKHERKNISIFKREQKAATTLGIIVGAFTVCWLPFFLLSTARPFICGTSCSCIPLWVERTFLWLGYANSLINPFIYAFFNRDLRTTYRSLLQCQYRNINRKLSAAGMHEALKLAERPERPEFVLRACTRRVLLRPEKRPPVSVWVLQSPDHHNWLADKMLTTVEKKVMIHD
Sequence of Sodium-dependent serotonin transporter (P31652 whole entry): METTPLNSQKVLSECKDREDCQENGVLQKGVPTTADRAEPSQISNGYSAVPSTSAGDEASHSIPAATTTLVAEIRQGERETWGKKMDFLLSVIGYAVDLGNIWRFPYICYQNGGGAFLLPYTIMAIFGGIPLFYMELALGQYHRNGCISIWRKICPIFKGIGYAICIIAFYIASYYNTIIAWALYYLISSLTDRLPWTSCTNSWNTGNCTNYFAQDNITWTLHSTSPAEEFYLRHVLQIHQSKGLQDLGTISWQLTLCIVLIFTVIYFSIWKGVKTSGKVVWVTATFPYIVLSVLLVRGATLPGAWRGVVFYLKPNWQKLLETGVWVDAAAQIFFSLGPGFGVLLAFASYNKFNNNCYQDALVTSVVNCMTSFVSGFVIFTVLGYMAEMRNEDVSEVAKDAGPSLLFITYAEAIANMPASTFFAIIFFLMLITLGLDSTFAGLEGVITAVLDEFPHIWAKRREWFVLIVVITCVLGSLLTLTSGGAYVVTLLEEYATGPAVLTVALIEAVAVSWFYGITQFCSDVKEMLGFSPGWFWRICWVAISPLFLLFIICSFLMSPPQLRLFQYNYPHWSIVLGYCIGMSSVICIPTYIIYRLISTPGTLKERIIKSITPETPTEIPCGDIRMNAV
Sequence of Sodium-dependent serotonin transporter (Rattus norvegicus) (P31652 whole entry): as above

SMILES | Ki [2] [µM] | inhibition [3] [%] | inhibition [4] [%] | other results
N#Cc1ccc(N2CCC(NCCC(=O)c3csc4ccccc34)CC2)cc1 | 7.24 | – | – | Activity [1]: Active
N#Cc1ccc(N2CC[C@H](NCCC(=O)c3csc4ccccc34)C2)cc1 | > 100 | 0 | 45.6 | –
N#Cc1ccc(N2CCN(CCC(=O)c3csc4ccccc34)CC2)cc1 | > 100 | 5.4 | 38.2 | –
O=C(CCN[C@H]1CCN(c2ccc([N+](=O)[O-])cc2)C1)c1csc2ccccc12 | > 100 | 0 | 36.6 | –
OC(CCN1CCC(N2CCOCC2)CC1)c1csc2ccccc12 (stereo unspecified) | 27.5 | 2.2 | 63.6 | –
N#Cc1ccc(N2CCC(NCCC(O)c3csc4ccccc34)CC2)cc1 (stereo unspecified) | 1.66 | 53.1 | 80.4 | IC50 [5]: 3.66 µM; Activity [6]: Non-toxic; Activity [7]: Active; Ki [8]: 0.158 µM; Activity [9]: Active
O=C(CCN1CC[C@@H](Nc2ccc([N+](=O)[O-])cc2)C1)c1csc2ccccc12 | > 100 | 17.9 | 76.5 | –
N#Cc1ccc(N2CCCN(CCC(O)c3csc4ccccc34)CC2)cc1 (stereo unspecified) | 0.263 | 19.7 | 36.7 | IC50 [5]: 57.8 µM; Activity [6]: Non-toxic; Activity [7]: Active; Activity [10]: Active; Ki [8]: 3.16 µM; Activity [9]: Active; Activity [11]: Active
O=[N+]([O-])c1ccc(N2CCCN(CCC(O)c3csc4ccccc34)CC2)c(C(F)(F)F)c1 (stereo unspecified) | 8.71 | 0 | 36 | Activity [1]: Active
CNCCC(Oc1ccc(C(F)(F)F)cc1)c1ccccc1 (stereo unspecified) | – | – | – | Activity [12]: Active; Activity [13]: inactive
O=C(CCNC1CCN(c2ccc([N+](=O)[O-])cc2)CC1)c1csc2ccc(F)cc12 | 4.79 | 3.1 | 35 | Activity [14]: Active; Activity [11]: Active
O=C(CCN1CCC(N2CCOCC2)CC1)c1csc2ccccc12 | 53.7 | 11.1 | 30.2 | –
N#Cc1ccc(N2CCCN(CCC(=O)c3csc4ccccc34)CC2)cc1 | 15.1 | 1.2 | 63.1 | –
O=C(CCN1CCCN(c2ccc([N+](=O)[O-])cc2C(F)(F)F)CC1)c1csc2ccccc12 | > 100 | – | – | –
O=C(CCN[C@@H]1CCN(c2ccc([N+](=O)[O-])cc2)C1)c1csc2ccccc12 | > 100 | 9 | 45.4 | –
O=C(CCNC1CCN(c2ccc([N+](=O)[O-])cc2C(F)(F)F)CC1)c1csc2ccccc12 | 9.12 | 26.9 | 62.8 | Activity [1]: Active; Activity [11]: Active
O=C(CCN1CCCN(c2cnc3ccccc3n2)CC1)c1csc2ccccc12 | 9.55 | 23.8 | 58 | –
O=C(CCN1CCN(c2ccc([N+](=O)[O-])cc2)CC1)c1csc2ccccc12 | > 100 | 2.1 | 33.2 | –
O=C(CCN1CCN(c2ccc([N+](=O)[O-])cc2)CC1)c1csc2ccc(F)cc12 | 91.2 | 0 | 16.3 | –
N#Cc1ccc(N2CCN(CCC(O)c3csc4ccccc34)CC2)cc1 (stereo unspecified) | 12.6 | 43.5 | 57.7 | Activity [9]: Active; Activity [11]: Active
O=C(CCN[C@H]1CCN(c2ccc([N+](=O)[O-])cc2C(F)(F)F)C1)c1csc2ccccc12 | > 100 | 28.4 | 97.9 | IC50 [5]: 7.02 µM; Activity [6]: Non-toxic; Activity [7]: Active; Ki [8]: 0.0501 µM
O=[N+]([O-])c1ccc(N2CCC(NCCC(O)c3csc4ccccc34)C2)cc1 (single isomer, unassigned) | > 100 | 28.1 | 49.2 | –
Nc1ccc(N2CCN(CCC(=O)c3csc4ccccc34)CC2)cc1 | 14.1 | – | – | –
